The target of the experiment is T1, cloned human dopamine D3 receptors (Homo sapiens, UniProt P35462).
T1 construct: expressed in transfected cells; membrane homogenate
The experiment is described as follows: [N-Methyl-3H]Spiroperidol binding to cloned human dopamine D3 receptors (Protocol 1). Put shortly:
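Radioligand displacement with [N-methyl-3H]spiroperidol used a physiological-salt Tris buffer (0.05 M, pH 7.7; NaCl 120 mM, KCl 5 mM, CaCl2 2 mM, MgCl2 1 mM) and membranes of a high-expressing stable CHO clone carrying human D3. Total ligand concentration came from measured added CPM; 0.1% ascorbic acid was optional for oxidizable compounds.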

[1] abbreviates: the 15th table, read-out: D3 Ki.
Where [2] appears, read: the 21st table, read-out: D3 Ki.
The mark [3] stands for this setting: the 14th table, read-out: D3 Ki.
[4] abbreviates: the 20th table, read-out: D3 Ki.
Setting [5] is: the 18th table, read-out: D3 Ki.
The mark [6] stands for this setting: the 13th table, unit inferred, read-out: D3Ki.
Setting [7] is: the 17th table, read-out: D3 Ki.

Each structure is given as a SMILES string. Read-outs that look alike come from different tables or passages of the source.

T1 sequence (P35462 whole entry): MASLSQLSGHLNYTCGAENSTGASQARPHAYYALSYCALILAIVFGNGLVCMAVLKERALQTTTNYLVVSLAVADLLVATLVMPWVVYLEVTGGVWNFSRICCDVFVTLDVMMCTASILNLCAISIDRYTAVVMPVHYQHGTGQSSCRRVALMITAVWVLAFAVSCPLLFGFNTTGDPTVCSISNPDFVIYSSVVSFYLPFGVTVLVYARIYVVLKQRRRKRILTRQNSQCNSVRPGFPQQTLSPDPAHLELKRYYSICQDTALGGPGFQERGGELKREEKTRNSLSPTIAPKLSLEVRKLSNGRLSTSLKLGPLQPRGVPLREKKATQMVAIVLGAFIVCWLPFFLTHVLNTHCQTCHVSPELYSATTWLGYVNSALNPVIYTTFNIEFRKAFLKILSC

Regarding `O=C(NCCCCN1C2CCC1CC(c1noc3ccccc13)C2)c1ccccc1C(F)(F)F` (stereo not drawn) [compound 816522], under setting [1], the Ki stood at 240 nM.
On to `C[C@@H]1CN(c2csc3cc(F)ccc23)C[C@H](C)N1CCCCNC(=O)c1ccc(-c2ccccc2)cc1` [compound 826943], for which, under setting [2], the Ki was 12.7 nM.
Regarding `O=C(NCC1CC1CN1CCC(c2noc3ccsc23)CC1)Oc1ccccc1` (stereo not drawn) [compound 831699], the Ki (D3 Ki (nM), the 25th table) turned out to be 3.04 nM.
As to `O=C(NCCCCCN1CCN(c2csc3cc(F)ccc23)CC1)c1cc2ccccc2[nH]1` [compound 826784], the Ki under setting [3] is 3.28 nM.
For `O=C(NCCCCN1CCN(c2c(Cl)sc3cc(F)ccc23)CC1)c1c(F)cc(F)cc1F` [compound 815054], the Ki (read-out: D3K1) worked out at 7.7 nM.
Consider `COc1ccccc1C(=O)NCc1ccoc1CN1CCN(c2csc3cc(F)ccc23)CC1` [compound 825842], for which the Ki under setting [4] is 532 nM.
Consider `O=C(NCc1sccc1CN1CCN(c2csc3cc(F)ccc23)CC1)c1ccc(-c2ccccn2)s1` [818320G], for which, under setting [5], the Ki worked out at 11.2 nM.
For the molecule `O=C(NCCCCN1CCCN(c2csc3cc(C(F)(F)F)ccc23)CC1)c1c[nH]c2ccccc12` [S980649], the Ki under setting [6] amounted to 54 nM.
As to `COc1ccc(/C=C/C(=O)NC/C=C/CN2CCN(c3csc4cc(C(F)(F)F)ccc34)CC2)cc1` [compound 827739], the Ki (Table 2, read-out: D3K1) worked out at 22.4 nM.
Take `O=C(NCCCCCN1CCN(c2csc3cc(C(F)(F)F)ccc23)CC1)c1c[nH]c2ccccc12` [compound 826797]: the Ki by setting is: (read-out: D3K1) 36.4 nM; under setting [3], 36.4 nM.
Consider `Cn1c(C(=O)NCCCCCN2CCCN(c3csc4cc(F)ccc34)CC2)cc2ccccc21` [S984506], for which the Ki under setting [6] amounted to 33.4 nM.
`O=C(NCCCCN1C2CCC1CC(c1noc3cc(F)ccc13)C2)c1ccc(-c2ccccc2)cc1` (stereo not drawn) [compound 816331]: the Ki under setting [1] was 44.2 nM.
With `COc1cccc(C(=O)Nc2cccc(CN3CCN(c4csc5cc(F)ccc45)CC3)c2)c1` [compound 822181], the Ki (the 19th table, read-out: D3 Ki) came out at 332 nM.
Consider `O=C(NC/C=C/CN1CCN(c2csc3cc(C(F)(F)F)ccc23)CC1)C1CCC1` [compound 827711], for which the Ki (read-out: D3K1) was 230 nM.
Take `O=C(NCCCCN1CCCN(c2csc3cc(F)ccc23)CC1)c1ccc2c(c1)C(=O)c1ccccc1-2` [S982538]: under setting [6], the Ki is 0.51 nM.
With `O=C(NCc1ccoc1CN1CCN(c2csc3cc(F)ccc23)CC1)c1ccc(F)cc1` [compound 825845], the Ki under setting [4] is 206 nM.
`C[C@@H]1CN(c2csc3cc(C(F)(F)F)ccc23)C[C@H](C)N1CCCCNC(=O)c1cc2ccccc2s1` [compound 827045]: the Ki under setting [2] is 97.8 nM.
As to `O=C(NCc1sccc1CN1CCN(c2csc3cc(F)ccc23)CC1)c1ccc(F)cc1` [compound 826304], under setting [5], the Ki turned out to be 84 nM.
Turning to `CCCCCCc1ccc(C(=O)NCCCCCN2CCC(c3noc4ccsc34)CC2)cc1` [compound 816219], the Ki under setting [6] was determined as 132 nM.
Still for that read-out and setting: the figure for `O=C(NCCCCN1CCCN(c2csc3cc(F)ccc23)CC1)c1ccccc1F` [compound 822195] is 4.7 nM.
Regarding `O=C(NCCCCCCN1CCN(c2csc3cc(C(F)(F)F)ccc23)CC1)c1cc2ccccc2s1` [compound 826754], the Ki is, setting by setting: (read-out: D3K1) 3.2 nM; under setting [3], 3.2 nM.
With `O=C(N[C@@H](CO)CCCN1CCN(c2csc3cc(C(F)(F)F)ccc23)CC1)c1cc2ccccc2o1` [compound 815677], the Ki reads like this: (Table 2, read-out: D3K1) 297 nM; (read-out: D3K1) 297 nM; under setting [3], 297 nM.
As to `C[C@@H]1CN(c2csc3cc(C(F)(F)F)ccc23)C[C@H](C)N1CCCCNC(=O)c1cccc(Cl)c1` [compound 827038], the Ki under setting [2] was 155 nM.
`O=C(NCCCCN1CCN(c2noc3ccsc23)CC1)c1ccc(-c2ccccc2)cc1` [compound 829680]: the Ki (the 22nd table, read-out: D3 Ki) was 14.7 nM.
As for `CCCCc1ccc(C(=O)N(Cc2ccccc2)CC2CC2CN2CCCN(c3csc4cc(F)ccc34)CC2)cc1` (racemic) [compound 830395], the Ki under setting [7] was determined as 27.6 nM.
As to `O=C(Cc1ccccc1)NC[C@@H]1CC1CN1CCCN(c2csc3cc(F)ccc23)CC1` (stereo partly drawn) [compound 831204], the Ki under setting [7] was found to be 5.05 nM.

These data come from patent US7550469B2, “Heterocyclic amide derivatives and their use as dopamine D3 receptor ligands” (Aventis Pharmaceuticals Inc., priority 2001, dated 2009).
